Measurements: patent publication US20120034613A1, “Apparatus and Method for Testing Relationships Between Gene Expression and Physical Appearance of Skin” (NSE Products, Inc., priority 2010, published 2012)

Tested on: EpidermFT™ Skin Model (EFT-400) full thickness skin cultures
Assay: Affymetrix GeneChip HG U133 Plus 2.0 microarray global gene expression, agent-exposed vs untreated skin cultures
Format: cell-based, human
Details: 0.5%, 24 hr

## OCc1ccccc1O[C@@H]1O[C@H](CO)[C@@H](O)[C@H](O)[C@H]1O [Salicin, 2-(Hydroxymethyl)phenyl β-D-glucospyranoside]
Probe 210764_s_at
  Direction CYR61: up
  Fold change CYR61: 2.692
Probe 210845_s_at
  Direction PLAUR: up
  Fold change PLAUR: 2.249
Probe 210998_s_at
  Direction HGF: up
  Fold change HGF: 4.35
Probe 211906_s_at
  Direction SERPINB4: down
  Fold change SERPINB4: 5.613
Probe 211922_s_at
  Direction CAT: down
  Fold change CAT: 2.095
Probe 211958_at
  Direction IGFBP5: up
  Fold change IGFBP5: 2.712
Probe 211981_at
  Direction COL4A1: up
  Fold change COL4A1: 2.121
Probe 212099_at
  Direction RHOB: up
  Fold change RHOB: 3.764
Probe 212321_at
  Direction SGPL1: down
  Fold change SGPL1: 2.406
Probe 212353_at
  Direction SULF1: up
  Fold change SULF1: 4.424
Probe 212531_at
  Direction LCN2: down
  Fold change LCN2: 12.01
Probe 213093_at
  Direction PRKCA: up
  Fold change PRKCA: 2.125
Probe 213103_at
  Direction STARD13: up
  Fold change STARD13: 2.844
Probe 213418_at
  Direction HSPA6: up
  Fold change HSPA6: 14.24
Probe 213764_s_at
  Direction MFAP5: down
  Fold change MFAP5: 2.112
Probe 213820_s_at
  Direction STARD5: down
  Fold change STARD5: 3.436
Probe 213921_at
  Direction SST: up
  Fold change SST: 4.356
Probe 213933_at
  Direction PTGER3: down
  Fold change PTGER3: 13.58
Probe 213992_at
  Direction COL4A6: down
  Fold change COL4A6: 4.8
Probe 214370_at
  Direction S100A8: up
  Fold change S100A8: 2.98
Probe 214446_at
  Direction ELL2: up
  Fold change ELL2: 2.557
Probe 214702_at
  Direction FN1: up
  Fold change FN1: 2.71
Probe 214913_at
  Direction ADAMTS3: up
  Fold change ADAMTS3: 2.145
Probe 215078_at
  Direction SOD2: up
  Fold change SOD2: 5.712
Probe 215808_at
  Direction KLK10: down
  Fold change KLK10: 4.673
Probe 215910_s_at
  Direction FNDC3A: up
  Fold change FNDC3A: 3.663
Probe 216005_at
  Direction TNC: up
  Fold change TNC: 2.719
Probe 216199_s_at
  Direction MAP3K4: up
  Fold change MAP3K4: 2.654
Probe 216248_s_at
  Direction NR4A2: up
  Fold change NR4A2: 7.592
Probe 216388_s_at
  Direction LTB4R: down
  Fold change LTB4R: 2.456
Probe 216598_s_at
  Direction CCL2: up
  Fold change CCL2: 5.407
Probe 216699_s_at
  Direction KLK1: down
  Fold change KLK1: 2.169
Probe 216979_at
  Direction NR4A3: up
  Fold change NR4A3: 7.204
Probe 217738_at
  Direction NAMPT: up
  Fold change NAMPT: 2.668
Probe 217979_at
  Direction TSPAN13: down
  Fold change TSPAN13: 2.401
Probe 217997_at
  Direction PHLDA1: up
  Fold change PHLDA1: 3.409
Probe 218810_at
  Direction ZC3H12A: up
  Fold change ZC3H12A: 2.117
Probe 218922_s_at
  Direction LASS4: down
  Fold change LASS4: 3.028
Probe 218963_s_at
  Direction KRT23: down
  Fold change KRT23: 10.94
Probe 219115_s_at
  Direction IL20RA: down
  Fold change IL20RA: 12.07
Probe 219284_at
  Direction HSPBAP1: up
  Fold change HSPBAP1: 2.08
Probe 219648_at
  Direction MREG: down
  Fold change MREG: 2.887
Probe 219695_at
  Direction SMPD3: down
  Fold change SMPD3: 13.66
Probe 220054_at
  Direction IL23A: up
  Fold change IL23A: 2.967
Probe 220056_at
  Direction IL22RA1: down
  Fold change IL22RA1: 2.023
Probe 220249_at
  Direction HYAL4: down
  Fold change HYAL4: 3.117
Probe 220414_at
  Direction CALML5: down
  Fold change CALML5: 8.749
Probe 220635_at
  Direction PSORS1C2: down
  Fold change PSORS1C2: 19.08
Probe 220745_at
  Direction IL19: up
  Fold change IL19: 2.278
Probe 221470_s_at
  Direction IL1F7: down
  Fold change IL1F7: 100.5
Probe 221577_x_at
  Direction GDF15: up
  Fold change GDF15: 5.573
Probe 221667_s_at
  Direction HSPB8: down
  Fold change HSPB8: 4.659
Probe 221750_at
  Direction HMGCS1: down
  Fold change HMGCS1: 2.406
Probe 221782_at
  Direction DNAJC10: up
  Fold change DNAJC10: 2.553
Probe 221841_s_at
  Direction KLF4: down
  Fold change KLF4: 2.468
Probe 222549_at
  Direction CLDN1: down
  Fold change CLDN1: 7.758
Probe 222881_at
  Direction HPSE: down
  Fold change HPSE: 4.194
